IC50 data for 21 molecules are collected here from US8765741B2, “5,6-dihydro-1H-pyridin-2-one compounds” (Anadys Pharmaceuticals, Inc., priority 2007, dated 2014).

As a reminder, the IC50 is the concentration that gives 50% inhibition.

Sequence of NS5B polymerase (P26663 2420-3010): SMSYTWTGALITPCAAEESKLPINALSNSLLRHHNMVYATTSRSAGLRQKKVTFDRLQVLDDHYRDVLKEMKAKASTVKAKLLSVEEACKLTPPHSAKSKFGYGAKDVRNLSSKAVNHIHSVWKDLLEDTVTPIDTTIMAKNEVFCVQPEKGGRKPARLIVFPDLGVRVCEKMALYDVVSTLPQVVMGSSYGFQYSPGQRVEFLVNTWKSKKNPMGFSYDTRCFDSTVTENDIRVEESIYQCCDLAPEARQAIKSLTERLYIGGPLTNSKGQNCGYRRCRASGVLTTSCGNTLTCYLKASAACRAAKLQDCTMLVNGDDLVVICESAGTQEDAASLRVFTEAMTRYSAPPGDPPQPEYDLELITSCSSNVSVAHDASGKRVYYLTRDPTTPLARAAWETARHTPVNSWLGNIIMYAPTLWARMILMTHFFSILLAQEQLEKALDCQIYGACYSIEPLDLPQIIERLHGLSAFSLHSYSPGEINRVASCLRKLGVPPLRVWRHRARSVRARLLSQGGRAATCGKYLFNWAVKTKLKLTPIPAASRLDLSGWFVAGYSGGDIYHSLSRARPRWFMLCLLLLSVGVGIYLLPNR

The first test addresses NS5B polymerase (Hepatitis C virus genotype 1b, UniProt P26663). Kind of test: biochemical.
Conditions: not given
The method, then: Compounds were tested for HCV polymerase inhibition. Assays were performed in a 96-well streptavidin-coated FlashPlate using 20 nM enzyme, 0.5 μCi of [α-^33P]GTP, 0.6 μM GTP, and 250 nM 5′biotinylated oligo (rG13)/poly rC in 20 mM Tris-HCl, pH 7.5, 5 mM MgCl2, 5 mM dithiothreitol, 0.1 g/L bovine serum albumin, and 100 U/mL RNAse inhibitor. The reaction was stopped by aspiration after 75 min at 28° C. and the plate was washed several times. After washing and drying the plate, incorporated radioactivity was counted using a Microbeta scintillation counter. IC50 values were calculated relative to the uninhibited control and inhibition data were fitted to a 4-parameter IC50 equation.
As to `CS(=O)(=O)Nc1ccc2c(c1)S(=O)(=O)N=C(C1=C(O)C3C4CCC(C4)C3N(Cc3ccc(F)cc3)C1=O)N2` (racemic) [Example 1, (rac-di-exo)-N-{3-[3-(4-Fluoro-benzyl)-6-hydroxy-4-oxo-3-aza-tricyclo[6.2.1.0^2,7]undec-5-en-5-yl]-1,1-dioxo-1,4-dihydro-1λ^6-benzo[1,2,4]thiadiazin-7-yl}-methanesulfonamide], the 50% inhibitory concentration (IC50) is less than 20 nM.

The test is the same for the next values; noted with them: NS5B polymerase inhibition; 20 nM enzyme, 75 min at 28° C.
`CS(=O)(=O)Nc1ccc2c(c1)S(=O)(=O)N=C(C1=C(O)C3C4CCC(C4)C3N(Cc3ccc(F)cc3)C1=O)N2` (racemic) [Example 2, (rac-di-endo)-N-{3-[3-(4-Fluoro-benzyl)-6-hydroxy-4-oxo-3-aza-tricyclo[6.2.1.0^2,7]undec-5-en-5-yl]-1,1-dioxo-1,4-dihydro-1λ^6-benzo[1,2,4]thiadiazin-7-yl}-methanesulfonamide]: the IC50 was less than 20 nM.

Staying with this test, now noted: NS5B polymerase inhibition; 20 nM enzyme, 75 min at 28° C.; read-out: IC50.
With `CS(=O)(=O)Nc1ccc2c(c1)S(=O)(=O)N=C(C1=C(O)C3C4CCC(C4)C3N(Cc3ccc(F)cn3)C1=O)N2` (racemic) [Example 3, (rac-di-endo)-N-{3-[3-(5-Fluoro-pyridin-2-ylmethyl)-6-hydroxy-4-oxo-3-aza-tricyclo[6.2.1.0^2,7]undec-5-en-5-yl]-1,1-dioxo-1,4-dihydro-1λ^6-benzo[1,2,4]thiadiazin-7-yl}-methanesulfonamide], the IC50 is 100 to 1000 nM.

On to `CS(=O)(=O)Nc1ccc2c(c1)S(=O)(=O)N=C(C1=C(O)C3C4CCC(O4)C3N(Cc3ccc(F)cc3)C1=O)N2` (racemic) [Example 8, (rac-di-exo)-N-{3-[3-(4-Fluoro-benzyl)-6-hydroxy-4-oxo-11-oxa-3-aza-tricyclo[6.2.1.0^2,7]undec-5-en-5-yl]-1,1-dioxo-1,4-dihydro-1λ^6-benzo[1,2,4]thiadiazin-7-yl}-methanesulfonamide], for which the IC50 was less than 20 nM. The same measure, in the same setting: as for `CS(=O)(=O)Nc1ccc2c(c1)S(=O)(=O)N=C(C1=C(O)C3C4C=CC(C4)C3N(Cc3ccc(F)cc3)C1=O)N2` (racemic) [Example 9, (rac-di-exo)-N-{3-[3-(4-Fluoro-benzyl)-6-hydroxy-4-oxo-3-aza-tricyclo[6.2.1.0^2,7]undeca-5,9-dien-5-yl]-1,1-dioxo-1,4-dihydro-1λ^6-benzo[1,2,4]thiadiazin-7-yl}-methanesulfonamide], the figure is 20 to 100 nM; as for `CS(=O)(=O)Nc1ccc2c(c1)S(=O)(=O)N=C(C1=C(O)C3C4C=CC(C4)C3N(Cc3ccc(F)cc3)C1=O)N2` (racemic) [Example 10, (rac-di-endo)-N-{3-[3-(4-Fluoro-benzyl)-6-hydroxy-4-oxo-3-aza-tricyclo[6.2.1.0^2,7]undeca-5,9-dien-5-yl]-1,1-dioxo-1,4-dihydro-1λ^6-benzo[1,2,4]thiadiazin-7-yl}-methanesulfonamide], 20 to 100 nM. Still for that read-out and setting: as for `Cc1cc(CN2C(=O)C(C3=NS(=O)(=O)c4cc(NS(C)(=O)=O)ccc4N3)=C(O)C3C4CCC(O4)C32)ccc1F` (racemic) [Example 12, (rac-di-exo)-N-{3-[3-(4-Fluoro-3-methyl-benzyl)-6-hydroxy-4-oxo-11-oxa-3-aza-tricyclo[6.2.1.0^2,7]undec-5-en-5-yl]-1,1-dioxo-1,4-dihydro-1λ^6-benzo[1,2,4]thiadiazin-7-yl}-methanesulfonamide], the figure is less than 20 nM; as for `CC(C)(C)CCN1C(=O)C(C2=NS(=O)(=O)c3cc(NS(C)(=O)=O)ccc3N2)=C(O)C2C3CCC(O3)C21` (racemic) [Example 13, (rac-di-exo)-N-{3-[3-(3,3-Dimethyl-butyl)-6-hydroxy-4-oxo-11-oxa-3-aza-tricyclo[6.2.1.0^2,7]undec-5-en-5-yl]-1,1-dioxo-1,4-dihydro-1λ^6-benzo[1,2,4]thiadiazin-7-yl}-methanesulfonamide], 20 to 100 nM.

Turning to `CS(=O)(=O)Nc1ccc2c(c1)S(=O)(=O)N=C(C1=C(O)C3C4CCC(O4)C3N(CCC3CC3)C1=O)N2` (racemic) [Example 23, (rac-di-exo)-N-{3-[3-(2-Cyclopropyl-ethyl)-6-hydroxy-4-oxo-11-oxa-3-aza-tricyclo[6.2.1.0^2,7]undec-5-en-5-yl]-1,1-dioxo-1,4-dihydro-1λ^6-benzo[1,2,4]thiadiazin-7-yl}-methanesulfonamide], the IC50 is less than 20 nM. On the same count and under the same terms, as for `CC(C)CCN1C(=O)C(C2=NS(=O)(=O)c3cc(NS(C)(=O)=O)ccc3N2)=C(O)C2C3CCC(O3)C21` (racemic) [Example 25, (rac-di-exo)-N-{3-[6-Hydroxy-3-(3-methyl-butyl)-4-oxo-11-oxa-3-aza-tricyclo[6.2.1.0^2,7]undec-5-en-5-yl]-1,1-dioxo-1,4-dihydro-1λ^6-benzo[1,2,4]thiadiazin-7-yl}-methanesulfonamide], the figure is less than 20 nM; as for `CC(C)CCN1C(=O)C(C2=NS(=O)(=O)c3cc(NS(C)(=O)=O)ccc3N2)=C(O)C2C3C=CC(C3)C21` (racemic) [Example 31, (rac-di-exo)-N-{3-[6-Hydroxy-3-(3-methyl-butyl)-4-oxo-3-aza-tricyclo[6.2.1.0^2,7]undeca-5,9-dien-5-yl]-1,1-dioxo-1,4-dihydro-1λ^6-benzo[1,2,4]thiadiazin-7-yl}-methanesulfonamide], 20 to 100 nM; as for `CC(C)(C)CCN1C(=O)C(C2=NS(=O)(=O)c3cc(NS(C)(=O)=O)ccc3N2)=C(O)C2C3C=CC(C3)C21` (racemic) [Example 32, (rac-di-exo)-N-{3-[3-(3,3-Dimethyl-butyl)-6-hydroxy-4-oxo-3-aza-tricyclo[6.2.1.0^2,7]undeca-5,9-dien-5-yl]-1,1-dioxo-1,4-dihydro-1λ^6-benzo[1,2,4]thiadiazin-7-yl}-methanesulfonamide], 20 to 100 nM. On to `CC(C)CCN1C(=O)C(C2=NS(=O)(=O)c3cc(I)ccc3N2)=C(O)C2C3CCC(O3)C21` (racemic) [Example 33, (rac-di-exo)-6-Hydroxy-5-(7-iodo-1,1-dioxo-1,4-dihydro-1λ^6-benzo[1,2,4]thiadiazin-3-yl)-3-(3-methyl-butyl)-11-oxa-3-aza-tricyclo[6.2.1.0^2,7]undec-5-en-4-one], for which the IC50 fell in the range of 1000 to 100000 nM.

As for `CC(C)(C)CCN1C(=O)C(C2=CS(=O)(=O)c3cc(NS(C)(=O)=O)ccc3N2)=C(O)C2C3C=CC(C3)C21` (racemic) [Example 36, (rac-di-exo)-N-{3-[3-(3,3-Dimethyl-butyl)-6-hydroxy-4-oxo-3-aza-tricyclo[6.2.1.0^2,7]undeca-5,9-dien-5-yl]-1,1-dioxo-1,4-dihydro-1λ^6-benzo[1,4]thiazin-7-yl}-methanesulfonamide], the IC50 was in the range of 20 to 100 nM. The same measure, in the same setting: as for `CS(=O)(=O)Nc1ccc2c(c1)S(=O)(=O)C=C(C1=C(O)C3C4C=CC(C4)C3N(Cc3ccc(F)cc3)C1=O)N2` (racemic) [Example 37, (rac-di-exo)-N-{3-[3-(4-Fluoro-benzyl)-6-hydroxy-4-oxo-3-aza-tricyclo[6.2.1.0^2,7]undeca-5,9-dien-5-yl]-1,1-dioxo-1,4-dihydro-1λ^6-benzo[1,4]thiazin-7-yl}-methanesulfonamide], the figure is less than 20 nM; as for `CC(C)CCN1C(=O)C(C2=CS(=O)(=O)c3cc(NS(C)(=O)=O)ccc3N2)=C(O)C2C3C=CC(C3)C21` (racemic) [Example 38, (rac-di-exo)-N-{3-[6-Hydroxy-3-(3-methyl-butyl)-4-oxo-3-aza-tricyclo[6.2.1.0^2,7]undeca-5,9-dien-5-yl]-1,1-dioxo-1,4-dihydro-1λ^6-benzo[1,4]thiazin-7-yl}-methanesulfonamide], 20 to 100 nM; as for `CN(c1ccc2c(c1)S(=O)(=O)N=C(C1=C(O)C3C4C=CC(C4)C3N(Cc3ccc(F)cc3)C1=O)N2)S(C)(=O)=O` (racemic) [Example 39, (rac-di-exo)-N-{3-[3-(4-Fluoro-benzyl)-6-hydroxy-4-oxo-3-aza-tricyclo[6.2.1.0^2,7]undeca-5,9-dien-5-yl]-1,1-dioxo-1,4-dihydro-1λ^6-benzo[1,2,4]thiadiazin-7-yl}-N-methyl-methanesulfonamide], 1000 to 100000 nM. As for `CC(C)CCN1C(=O)C(C2=NS(=O)(=O)c3cc(NS(=O)(=O)C4CC4)ccc3N2)=C(O)C2C3CCC(O3)C21` (racemic) [Example 42, (rac-di-exo)-Cyclopropanesulfonic acid{3-[6-hydroxy-3-(3-methyl-butyl)-4-oxo-11-oxa-3-aza-tricyclo[6.2.1.0^2,7]undec-5-en-5-yl]-1,1-dioxo-1,4-dihydro-1λ^6-benzo[1,2,4]thiadiazin-7-yl}-amide], the IC50 lay in the range of 20 to 100 nM.

`CC(C)(C)CCN1C(=O)C(C2=NS(=O)(=O)c3cc(NS(=O)(=O)C4CC4)ccc3N2)=C(O)C2C3C=CC(C3)C21` (racemic) [Example 43, (rac-di-exo)-Cyclopropanesulfonic acid{3-[3-(3,3-dimethyl-butyl)-6-hydroxy-4-oxo-3-aza-tricyclo[6.2.1.0^2,7]undeca-5,9-dien-5-yl]-1,1-dioxo-1,4-dihydro-1λ^6-benzo[1,2,4]thiadiazin-7-yl}-amide]: the IC50 lay in the range of 20 to 100 nM.

Consider `CC(C)CCN1C(=O)C(C2=NS(=O)(=O)c3cc(NS(=O)(=O)C4CC4)ccc3N2)=C(O)C2C3C=CC(C3)C21` (racemic) [Example 45, (rac-di-exo)-Cyclopropanesulfonic acid{3-[6-hydroxy-3-(3-methyl-butyl)-4-oxo-3-aza-tricyclo[6.2.1.0^2,7]undeca-5,9-dien-5-yl]-1,1-dioxo-1,4-dihydro-1λ^6-benzo[1,2,4]thiadiazin-7-yl}-amide], for which the IC50 fell in the range of 20 to 100 nM. Same read-out and setting: to `O=C1C(C2=NS(=O)(=O)c3cc(NS(=O)(=O)C4CC4)ccc3N2)=C(O)C2C3C=CC(C3)C2N1Cc1ccc(F)cc1` (racemic) [Example 46, (rac-di-exo)-Cyclopropanesulfonic acid{3-[3-(4-fluoro-benzyl)-6-hydroxy-4-oxo-3-aza-tricyclo[6.2.1.0^2,7]undeca-5,9-dien-5-yl]-1,1-dioxo-1,4-dihydro-1λ^6-benzo[1,2,4]thiadiazin-7-yl}-amide] belongs less than 20 nM.
